From ChEMBL document CHEMBL1201862, “PubChem BioAssay data set” (2004)
Activity calls are given as the source filed them.

Assays:
[1] = NIH-3T3 fibroblast cytotoxicity, dose response, cytotoxicity control, cell-based, fluorescence, Alamar Blue, secondary assay (AID 2327); assay type: functional;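 further: NIH-3T3 mouse fibroblasts cultured with fluconazole at 8 µg/mL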
[2] = fluconazole-exposed Candida albicans growth modulators – fluorescence, retest, confirmation (AID 2467); assay type: functional, cell-based
[3] = biological target: Serine/threonine-protein phosphatase (Candida dubliniensis (strain CD36 / CBS 7987 / NCPF 3949 / NRRLY-17841) (Yeast), UniProt B9W6M3); assay: blockers of CaCl2-induced CDRE-lacZ signaling – S. cerevisiae, luminescence, secondary, dose response (AID 2388); assay type: functional, cell-based;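 further: yeast reporter cells carrying a calcineurin-responsive lacZ construct stimulated with calcium chloride; luminescent beta-galactosidase reporter signal in whole cells rather than isolated phosphatase activity; potency for inhibition where a drop in reporter signal means calcineurin blockade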
Sequence of Serine/threonine-protein phosphatase (B9W6M3 whole entry): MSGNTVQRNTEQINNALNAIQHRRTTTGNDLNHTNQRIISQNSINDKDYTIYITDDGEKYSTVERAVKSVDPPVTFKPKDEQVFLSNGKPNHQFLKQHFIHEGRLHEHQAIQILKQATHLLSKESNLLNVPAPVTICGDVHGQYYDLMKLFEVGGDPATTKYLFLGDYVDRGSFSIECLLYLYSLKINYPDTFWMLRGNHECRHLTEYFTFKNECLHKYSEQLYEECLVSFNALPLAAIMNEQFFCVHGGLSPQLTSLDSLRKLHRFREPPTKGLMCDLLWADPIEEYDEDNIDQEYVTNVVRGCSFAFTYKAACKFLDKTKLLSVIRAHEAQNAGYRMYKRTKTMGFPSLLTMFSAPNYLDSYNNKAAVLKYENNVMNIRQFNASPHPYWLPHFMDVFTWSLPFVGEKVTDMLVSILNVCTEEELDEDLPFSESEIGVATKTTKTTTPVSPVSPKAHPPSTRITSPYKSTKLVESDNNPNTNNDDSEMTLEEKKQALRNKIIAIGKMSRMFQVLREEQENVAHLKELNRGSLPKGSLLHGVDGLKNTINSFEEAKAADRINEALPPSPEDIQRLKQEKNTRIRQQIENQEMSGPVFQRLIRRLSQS

[4] = biological target: ATP-dependent molecular chaperone HSP82 (Candida albicans (strain WO-1) (Yeast), UniProt C4YTQ8); assay: steroid-induced GRE reporter decrease in yeast – S. cerevisiae, luminescence, Hsp90 inhibitor project, dose response (AID 2400); assay type: functional, cell-based;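 further: beta-galactosidase luminescence from glucocorticoid response element reporter as proxy for Hsp90 function; inhibitor potency where signal loss means Hsp90 inhibition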
Sequence of ATP-dependent molecular chaperone HSP82 (C4YTQ8 whole entry): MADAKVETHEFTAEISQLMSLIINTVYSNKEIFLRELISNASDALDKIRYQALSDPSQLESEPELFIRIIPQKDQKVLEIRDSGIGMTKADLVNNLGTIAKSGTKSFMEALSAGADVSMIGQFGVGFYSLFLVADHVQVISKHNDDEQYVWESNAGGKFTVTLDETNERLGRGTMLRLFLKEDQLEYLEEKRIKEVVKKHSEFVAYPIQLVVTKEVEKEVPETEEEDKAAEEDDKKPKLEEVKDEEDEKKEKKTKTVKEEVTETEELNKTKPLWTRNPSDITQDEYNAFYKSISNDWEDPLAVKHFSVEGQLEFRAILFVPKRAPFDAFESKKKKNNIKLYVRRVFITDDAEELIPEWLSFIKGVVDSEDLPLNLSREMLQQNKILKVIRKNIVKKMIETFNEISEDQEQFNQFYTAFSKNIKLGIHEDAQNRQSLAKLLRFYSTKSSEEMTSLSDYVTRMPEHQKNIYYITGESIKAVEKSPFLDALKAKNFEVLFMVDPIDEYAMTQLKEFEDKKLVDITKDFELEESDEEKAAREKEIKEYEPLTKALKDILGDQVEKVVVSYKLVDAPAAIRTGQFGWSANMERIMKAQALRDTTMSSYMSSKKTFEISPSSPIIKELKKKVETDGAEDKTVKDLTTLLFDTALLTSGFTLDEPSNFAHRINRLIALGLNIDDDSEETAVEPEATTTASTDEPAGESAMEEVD

[5] = biological target: T1, Endoribonuclease toxin MazF (Escherichia coli K-12, UniProt P0AE70); assay: activation of MazEF endoribonuclease cleavage – biochemical, fluorescence, single-stranded RNA substrate, uHTS hits, dose response (AID 588481); assay type: functional
T1 sequence (P0AE70 whole entry): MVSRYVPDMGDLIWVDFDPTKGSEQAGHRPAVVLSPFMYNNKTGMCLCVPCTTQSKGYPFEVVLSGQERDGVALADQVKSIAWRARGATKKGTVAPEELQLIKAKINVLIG

[6] = biological target: T1, Endoribonuclease toxin MazF; assay: substrate-only fluorescence increase artefacts – biochemical, single-stranded RNase substrate, counter-screen for MazEF activator project, dose response (AID 588502); assay type: functional
[7] = biological target: T2, Sentrin-specific protease 1 (Homo sapiens, UniProt Q9P0U3); assay: SENP1 catalytic domain blockers, concentration series – biochemical, kinetic FRET, dose response (AID 651697); assay type: functional; details: read-out: IC50_Mean
T2 sequence (Q9P0U3 whole entry): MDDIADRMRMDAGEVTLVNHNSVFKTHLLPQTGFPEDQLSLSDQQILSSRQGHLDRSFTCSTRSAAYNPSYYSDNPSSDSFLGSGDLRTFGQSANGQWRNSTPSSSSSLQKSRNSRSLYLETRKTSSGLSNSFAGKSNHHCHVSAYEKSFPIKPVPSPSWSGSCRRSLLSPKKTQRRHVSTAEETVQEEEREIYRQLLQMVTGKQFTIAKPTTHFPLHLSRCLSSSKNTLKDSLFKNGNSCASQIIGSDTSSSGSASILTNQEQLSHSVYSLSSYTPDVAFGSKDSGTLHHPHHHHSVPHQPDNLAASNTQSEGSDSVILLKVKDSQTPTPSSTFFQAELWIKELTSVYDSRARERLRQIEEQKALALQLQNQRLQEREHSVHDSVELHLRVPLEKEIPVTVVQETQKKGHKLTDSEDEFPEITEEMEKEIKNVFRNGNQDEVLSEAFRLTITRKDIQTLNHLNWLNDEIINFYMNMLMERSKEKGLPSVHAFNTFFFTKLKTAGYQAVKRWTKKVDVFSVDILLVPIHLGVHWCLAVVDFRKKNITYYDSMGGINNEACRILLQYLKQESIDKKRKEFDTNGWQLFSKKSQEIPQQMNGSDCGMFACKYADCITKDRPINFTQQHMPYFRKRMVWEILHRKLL

[8] = biological target: T2, Sentrin-specific protease 1; assay: Dose response confirmation of small molecule inhibitors of the catalytic domain of the SUMO protease, SENP1 in a FRET assay.; assay type: functional; details: read-out: IC50_Mean
[9] = biological target: Dual specificity protein kinase CLK1 (Homo sapiens, UniProt P49759); assay: inhibition of human CLK1 activity – biochemical, cherry-picked samples, selectivity assay for Dyrk1A inhibitor project, dose response (AID 588811)
Sequence of Dual specificity protein kinase CLK1 (P49759 whole entry): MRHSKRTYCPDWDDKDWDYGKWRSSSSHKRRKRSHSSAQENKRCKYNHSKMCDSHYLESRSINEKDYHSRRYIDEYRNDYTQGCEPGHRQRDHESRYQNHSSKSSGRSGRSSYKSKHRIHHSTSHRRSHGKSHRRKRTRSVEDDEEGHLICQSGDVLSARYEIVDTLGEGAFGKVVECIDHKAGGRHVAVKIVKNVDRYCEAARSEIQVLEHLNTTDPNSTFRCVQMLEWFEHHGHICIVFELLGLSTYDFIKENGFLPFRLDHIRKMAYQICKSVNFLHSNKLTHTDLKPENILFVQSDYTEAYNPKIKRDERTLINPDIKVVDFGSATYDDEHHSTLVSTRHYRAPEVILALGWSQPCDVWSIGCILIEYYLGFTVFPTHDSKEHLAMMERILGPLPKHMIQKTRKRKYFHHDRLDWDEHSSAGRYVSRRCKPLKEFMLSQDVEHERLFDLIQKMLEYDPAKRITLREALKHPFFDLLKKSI

[10] = biological target: Dual specificity tyrosine-phosphorylation-regulated kinase 1A (Rattus norvegicus, UniProt Q63470); assay type: biochemical, Homo sapiens
CHO = CHO cell viability loss, potency – luminescence, cytotoxicity control for TLR9-MyD88 binding inhibitor project, dose response (AID 588339); assay type: functional, cell-based, hamster; details: Cricetulus griseus;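 further: CHO cells stably coexpressing TLR9 and MyD88 fusions from primary screen; compound exposure lasted 48 hours before viability readout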
Beta Lactamase = Beta Lactamase (Pseudomonas aeruginosa, UniProt Q932Y6); assay: BLA reporter interference, concentration series – BLA reporter cells, FRET fluorescence, artefact control for TLR9-MyD88 binding inhibitor project, dose response (AID 588341); assay type: cell-based;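 further: cell based assay in CHO-K1 cells stably expressing beta-lactamase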
Sequence of Beta Lactamase (Q932Y6 whole entry, the tested form may be a part): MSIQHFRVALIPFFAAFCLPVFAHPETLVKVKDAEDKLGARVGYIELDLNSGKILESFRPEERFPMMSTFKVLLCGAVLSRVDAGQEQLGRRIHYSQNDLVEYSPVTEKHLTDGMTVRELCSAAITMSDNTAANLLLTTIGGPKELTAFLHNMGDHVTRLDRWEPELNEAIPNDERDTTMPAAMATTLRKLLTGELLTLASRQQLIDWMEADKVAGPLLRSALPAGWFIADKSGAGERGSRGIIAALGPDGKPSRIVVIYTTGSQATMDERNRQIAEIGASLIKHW

Hexokinase-1 = biological target: T3, Hexokinase-1 (Homo sapiens, UniProt P19367); assay: SAR analysis of small molecule inhibitors of hexokinase domain containing I (HKDC1) in the hexokinase 1 selectivity assay. [Related pubchem assays (depositor defined):AID493160, AID493190]; assay type: functional
T3 sequence (P19367 whole entry): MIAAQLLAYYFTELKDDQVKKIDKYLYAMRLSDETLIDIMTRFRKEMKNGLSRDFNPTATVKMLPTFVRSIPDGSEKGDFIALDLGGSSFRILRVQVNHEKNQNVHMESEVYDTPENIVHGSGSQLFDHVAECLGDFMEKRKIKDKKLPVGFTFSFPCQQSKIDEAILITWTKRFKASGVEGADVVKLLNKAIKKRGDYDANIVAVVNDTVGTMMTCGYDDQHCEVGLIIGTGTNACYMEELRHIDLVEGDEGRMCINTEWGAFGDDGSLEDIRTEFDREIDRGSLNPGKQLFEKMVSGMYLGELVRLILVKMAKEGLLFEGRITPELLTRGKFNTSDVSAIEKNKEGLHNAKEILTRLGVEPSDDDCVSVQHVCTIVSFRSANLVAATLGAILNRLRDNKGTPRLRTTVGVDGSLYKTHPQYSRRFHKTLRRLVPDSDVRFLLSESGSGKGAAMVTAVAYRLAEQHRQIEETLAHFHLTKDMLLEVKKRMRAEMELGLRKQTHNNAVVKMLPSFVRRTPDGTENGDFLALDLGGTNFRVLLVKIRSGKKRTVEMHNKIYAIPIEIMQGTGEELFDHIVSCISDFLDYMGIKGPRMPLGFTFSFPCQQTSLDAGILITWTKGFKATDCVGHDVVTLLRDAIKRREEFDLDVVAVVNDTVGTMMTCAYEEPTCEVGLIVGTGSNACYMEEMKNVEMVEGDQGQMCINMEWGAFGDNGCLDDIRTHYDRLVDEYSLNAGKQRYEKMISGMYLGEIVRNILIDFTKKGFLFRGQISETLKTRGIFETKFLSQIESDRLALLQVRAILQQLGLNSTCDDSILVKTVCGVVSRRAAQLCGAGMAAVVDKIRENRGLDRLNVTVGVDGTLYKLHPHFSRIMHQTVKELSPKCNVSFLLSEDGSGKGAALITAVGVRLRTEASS

Hexokinase HKDC1 = biological target: T4, Hexokinase HKDC1 (Homo sapiens, UniProt Q2TB90); assay: SAR analysis of small molecule inhibitors of hexokinase domain containing I (HKDC1). [Related pubchem assays (depositor defined):AID493160, AID493190]; assay type: functional
T4 sequence (Q2TB90 whole entry): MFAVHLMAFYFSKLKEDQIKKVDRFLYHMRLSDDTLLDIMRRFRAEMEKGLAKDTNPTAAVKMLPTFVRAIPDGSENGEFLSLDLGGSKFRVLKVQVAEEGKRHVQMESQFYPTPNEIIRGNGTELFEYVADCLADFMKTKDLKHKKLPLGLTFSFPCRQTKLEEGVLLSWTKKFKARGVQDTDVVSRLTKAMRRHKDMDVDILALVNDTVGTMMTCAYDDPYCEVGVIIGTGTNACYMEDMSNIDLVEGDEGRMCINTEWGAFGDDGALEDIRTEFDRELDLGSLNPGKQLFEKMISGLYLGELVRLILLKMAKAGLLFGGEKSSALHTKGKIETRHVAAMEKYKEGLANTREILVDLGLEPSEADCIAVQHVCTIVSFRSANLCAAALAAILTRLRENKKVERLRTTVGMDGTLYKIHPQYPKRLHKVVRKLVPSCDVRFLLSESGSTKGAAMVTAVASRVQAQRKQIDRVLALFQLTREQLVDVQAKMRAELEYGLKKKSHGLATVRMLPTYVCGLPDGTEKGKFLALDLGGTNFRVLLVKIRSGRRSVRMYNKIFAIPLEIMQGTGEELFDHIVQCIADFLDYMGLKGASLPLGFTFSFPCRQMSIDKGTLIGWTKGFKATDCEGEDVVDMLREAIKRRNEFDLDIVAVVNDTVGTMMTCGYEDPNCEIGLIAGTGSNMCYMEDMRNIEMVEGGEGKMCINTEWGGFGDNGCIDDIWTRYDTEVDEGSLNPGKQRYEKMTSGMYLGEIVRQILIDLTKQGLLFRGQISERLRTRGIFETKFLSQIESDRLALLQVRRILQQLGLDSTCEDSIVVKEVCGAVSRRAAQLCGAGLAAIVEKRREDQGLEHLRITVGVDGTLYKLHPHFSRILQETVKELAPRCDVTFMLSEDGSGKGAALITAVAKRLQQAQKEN

[11] = system: Streptococcus sp. 'group A'; assay: Streptococcus pyogenes SK(-)GAS viability under kanamycin – luminescence, BacTiterGlo, confirmation, counter-screen for streptokinase expression inhibitor project, dose response (AID 1900); assay type: functional, organism-based; details: Streptococcus sp. 'group A'
cells [12] = assay type: functional, cell-based
Streptokinase A = biological target: T5, Streptokinase A (Streptococcus pyogenes serotype M1, UniProt P10520); assay: viability-normalized secreted streptokinase activity reduction – plasminogen activation absorbance, OD405, dose response (AID 1914); assay type: functional, Streptococcus pyogenes M1 GAS;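 further: secreted streptokinase activity via plasminogen activation per viability signal from cell pellet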
T5 sequence (P10520 whole entry): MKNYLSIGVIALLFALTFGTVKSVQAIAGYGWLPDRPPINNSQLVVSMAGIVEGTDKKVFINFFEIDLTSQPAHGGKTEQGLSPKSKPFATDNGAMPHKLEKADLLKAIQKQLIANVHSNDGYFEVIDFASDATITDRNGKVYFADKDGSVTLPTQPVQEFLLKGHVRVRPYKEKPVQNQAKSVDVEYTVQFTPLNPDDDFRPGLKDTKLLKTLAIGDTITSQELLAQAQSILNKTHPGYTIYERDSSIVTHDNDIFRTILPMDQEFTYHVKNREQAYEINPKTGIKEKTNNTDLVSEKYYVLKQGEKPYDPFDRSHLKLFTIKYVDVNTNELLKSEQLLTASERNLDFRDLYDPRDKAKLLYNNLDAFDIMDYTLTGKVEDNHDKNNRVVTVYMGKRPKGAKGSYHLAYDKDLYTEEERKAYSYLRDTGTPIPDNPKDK

[13] = microbe, parasite or virus in culture; assay type: functional; details: Mycobacterium tuberculosis
cells [14] = assay type: functional, cell-based; remark: listed apart in the source
[15] = biological target: T6, Kappa-type opioid receptor (Homo sapiens, UniProt P41145); assay type: functional
T6 sequence (P41145 whole entry): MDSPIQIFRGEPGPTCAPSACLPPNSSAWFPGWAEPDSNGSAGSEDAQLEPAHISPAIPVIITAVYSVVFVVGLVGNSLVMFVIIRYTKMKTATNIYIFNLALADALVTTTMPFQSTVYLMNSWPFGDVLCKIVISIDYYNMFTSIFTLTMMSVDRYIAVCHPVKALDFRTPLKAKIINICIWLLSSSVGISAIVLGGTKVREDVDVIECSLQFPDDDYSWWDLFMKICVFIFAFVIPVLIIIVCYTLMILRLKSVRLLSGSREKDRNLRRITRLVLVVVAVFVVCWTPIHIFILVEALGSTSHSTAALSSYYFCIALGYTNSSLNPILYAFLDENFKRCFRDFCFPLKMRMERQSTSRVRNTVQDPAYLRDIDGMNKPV

Beta-galactosidase = Beta-galactosidase (Escherichia coli, UniProt Q8VNN2); assay type: functional
Sequence of Beta-galactosidase (Q8VNN2 whole entry): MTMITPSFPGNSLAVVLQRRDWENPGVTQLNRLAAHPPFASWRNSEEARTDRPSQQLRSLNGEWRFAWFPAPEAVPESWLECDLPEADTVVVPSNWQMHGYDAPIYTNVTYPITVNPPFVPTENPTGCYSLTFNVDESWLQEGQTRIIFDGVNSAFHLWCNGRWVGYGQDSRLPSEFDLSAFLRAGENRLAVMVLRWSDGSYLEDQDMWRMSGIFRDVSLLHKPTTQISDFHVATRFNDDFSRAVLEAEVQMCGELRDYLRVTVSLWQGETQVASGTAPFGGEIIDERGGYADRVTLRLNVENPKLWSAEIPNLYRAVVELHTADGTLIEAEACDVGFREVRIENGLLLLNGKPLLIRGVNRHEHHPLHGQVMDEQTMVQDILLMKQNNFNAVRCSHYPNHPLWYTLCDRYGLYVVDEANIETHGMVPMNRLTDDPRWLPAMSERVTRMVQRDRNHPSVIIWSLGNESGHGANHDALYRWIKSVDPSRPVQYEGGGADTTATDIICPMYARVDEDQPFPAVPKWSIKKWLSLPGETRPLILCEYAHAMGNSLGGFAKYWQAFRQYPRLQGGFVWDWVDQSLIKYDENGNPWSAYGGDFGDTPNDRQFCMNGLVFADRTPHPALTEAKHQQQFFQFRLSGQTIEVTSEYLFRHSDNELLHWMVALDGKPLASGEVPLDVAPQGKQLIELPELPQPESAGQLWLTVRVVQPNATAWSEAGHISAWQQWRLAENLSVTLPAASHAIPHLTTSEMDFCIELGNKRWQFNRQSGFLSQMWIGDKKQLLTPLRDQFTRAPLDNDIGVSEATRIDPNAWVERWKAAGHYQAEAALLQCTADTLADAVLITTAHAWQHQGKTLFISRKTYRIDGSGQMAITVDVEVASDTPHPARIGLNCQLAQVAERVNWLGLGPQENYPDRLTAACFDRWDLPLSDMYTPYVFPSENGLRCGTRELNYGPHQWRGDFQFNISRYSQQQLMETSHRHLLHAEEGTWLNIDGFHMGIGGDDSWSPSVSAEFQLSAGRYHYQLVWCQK

[16] = biological target: T6, Kappa-type opioid receptor; assay type: functional; remark: listed apart in the source
Streptococcus = assay: GAS UMAA2166 growth inhibition – luminescence, BacTiterGlo, counter-screen for streptokinase expression inhibitor project, dose response (AID 1915); assay type: functional, organism-based; details: Streptococcus;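 further: potency for reduction of bacterial viability or growth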
[17] = HEK-293T viability loss after treatment – luminescence, T-cell screen hits, cytotoxicity control for TCR NF-kB inhibitor project, dose response (AID 489026); assay type: functional, cell-based;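 further: cells exposed to compound about 14 hours before the viability readout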
Nonstructural protein 1 = Nonstructural protein 1 (Influenza A virus, UniProt Q194T2); assay type: functional, Influenza A virus (A/California/07/2009(H1N1))
Sequence of Nonstructural protein 1 (Q194T2 whole entry): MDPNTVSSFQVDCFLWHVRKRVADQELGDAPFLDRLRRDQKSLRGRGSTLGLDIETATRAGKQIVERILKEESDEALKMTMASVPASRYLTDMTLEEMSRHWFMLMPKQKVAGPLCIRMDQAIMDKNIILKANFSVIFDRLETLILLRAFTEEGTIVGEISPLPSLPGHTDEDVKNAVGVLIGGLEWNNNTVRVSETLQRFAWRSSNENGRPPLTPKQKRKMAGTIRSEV

HEK293 = assay: EBV LMP1 TES2 canonical NF-kB signalling blockers – cell-based, HEK293, luciferase, cherry-pick, dose response (AID 588343); assay type: functional; details: Homo sapiens
INS1 = assay: INS-1E survival protection against cytokine death – cell-based, luminescence, retest, dose response (AID 449756); assay type: functional; details: Rattus norvegicus;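 further: cell death triggered by IL-1 beta plus TNF-alpha plus IFN-gamma mixture; protective hits raise ATP signal compared with cytokine alone wells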
Paired box protein Pax-8 = Paired box protein Pax-8 (Homo sapiens, UniProt Q06710); assay: PAX8 transcriptional activity inhibition in RMG-I – RMG-I cells, luciferase, cherry-pick, dose response (AID 687027); assay type: functional, cell-based;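 further: luciferase reporter driven by Pax8 target thyroperoxidase promoter measured by SteadyGlo luminescence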
Sequence of Paired box protein Pax-8 (Q06710 whole entry): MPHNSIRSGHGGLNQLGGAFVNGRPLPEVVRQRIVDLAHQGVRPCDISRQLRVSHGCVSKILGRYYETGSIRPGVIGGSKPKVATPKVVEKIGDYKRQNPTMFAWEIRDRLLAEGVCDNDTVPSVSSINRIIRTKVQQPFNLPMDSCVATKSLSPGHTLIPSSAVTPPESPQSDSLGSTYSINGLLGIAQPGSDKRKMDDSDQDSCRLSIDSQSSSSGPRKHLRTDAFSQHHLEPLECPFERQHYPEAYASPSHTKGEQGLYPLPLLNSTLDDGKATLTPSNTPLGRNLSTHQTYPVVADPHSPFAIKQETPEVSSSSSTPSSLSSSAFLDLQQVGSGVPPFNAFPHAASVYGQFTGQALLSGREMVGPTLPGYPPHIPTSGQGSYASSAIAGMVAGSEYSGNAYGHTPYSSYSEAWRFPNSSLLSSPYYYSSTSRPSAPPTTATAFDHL

Structure (SMILES): Cc1cc(C(=O)Nc2sc3c(c2C#N)CCCC3)no1
- EC50 [1]: > 160 µM (inactive)
- EC50 [2]: 2.21 µM (active)
- EC50 [3]: > 180 µM (inactive)
- EC50 [4]: 24.9 µM (active)

Structure (SMILES): Cc1ccc2nc3sc(C(=O)NCc4ccco4)c(N)c3cc2c1
- EC50 [5]: > 99 µM (inactive)
- EC50 [6]: 65.2 µM (inactive)
- IC50 [7]: 4.66 µM (active)
- IC50 [8]: 7.17 µM (active)

Structure (SMILES): COc1ccc(-c2cc(NCCc3ccncc3)n3ncnc3n2)cc1
- AC50 [9]: 18.6 µM (active)
- AC50 [10]: > 120 µM (inactive)

Structure (SMILES): Cc1cc(C)n(-c2nc3ccccc3nc2Nc2ccc3[nH]c(O)nc3c2)n1
- EC50 [5]: > 99 µM (inactive)
- EC50 [6]: > 99 µM (inactive)

Structure (SMILES): CCC(=O)c1ccc(/C=C/c2nc3ccccc3n2C)o1
- IC50 (CHO): > 49.7 µM (inactive)
- IC50 (Beta Lactamase): 5.11 µM (active)

Structure (SMILES): O=C(Nc1cccc(C(F)(F)F)c1)c1cccc(NC(=O)c2cccc3ccccc23)c1
- IC50 (Hexokinase-1): > 80 µM (inactive)
- IC50 (Hexokinase HKDC1): > 80 µM (inactive)

Structure (SMILES): O=C(Nc1cccc(C(F)(F)F)c1)c1cccc(NC(=O)c2ccc3[nH]nnc3c2)c1
- IC50 (Hexokinase-1): > 80 µM (inactive)
- IC50 (Hexokinase HKDC1): > 80 µM (inactive)

Structure (SMILES): C=CCNC(=S)N/N=C(\C)c1ccccn1
- EC50 [1]: 40.7 µM (inconclusive)
- EC50 [11]: 2 µM (active)
- EC50 (cells [12]): 9.83 µM (active)
- EC50 (Streptokinase A): > 150 µM (not active)
- EC50 [2]: 0.146 µM (active)
- CC50 [13]: < 0.08 µM (active)
- EC50 (cells [14]): > 350 µM (not active)
- EC50 [3]: > 180 µM (inactive)
- IC50 [15]: 3.27 µM (active)
- EC50 (Beta-galactosidase): > 31.5 µM (inactive)
- IC50 [16]: > 32 µM
- EC50 (Streptococcus): > 150 µM (not active)
- IC50 [17]: > 80 µM (inactive)
- IC50 (Nonstructural protein 1): 2.5 µM (active)
- AC50 (HEK293): 0.493 µM (active)
- AC50 (INS1): < 0.195 µM (active)
- EC50 [4]: > 150 µM (inactive)
- AC50 (Paired box protein Pax-8): < 0.26 µM (active)
